The record followed here is patent publication US12649750B2, “Macrocyclic compounds, compositions, and methods of using thereof” (Sionna Therapeutics Inc., priority 2022, dated 2026).

One test deals with T1, NBD1 (Homo sapiens, UniProt P13569).
T1 construct: Purified recombinant NBD1 was produced using previously described methods; made in house
The test is described as follows: Aggregation analysis using differential static light scattering (DSLS), thermal stability of NBD1 (ΔTagg). Format: binding. Conditions: ΔTagg versus DMSO control, NBD1 0.2 mg/ml. In short, it runs like this:
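Thermal aggregation of purified NBD1 was followed by static light scattering during a 1° C./min ramp to 70° C. Protein was at 0.2 mg/ml with 2 mM ATP at pH7.6. Each compound's Tagg was referenced to DMSO controls.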

Another test deals with T2, CFTR (Homo sapiens, UniProt P13569, DEL508-508).
T2 construct: Primary human bronchial epithelial cells from a ΔF508 homozygous CF donor; host or cells: primary human bronchial epithelial cells (CF-HBE), ΔF508 homozygous donor
The test is described as follows: TECC24 AUC fold over DMSO @10 μM, CFTR-mediated transepithelial chloride transport in CF-HBE cells. It counts as cell-based. The note with it: test agent AUC divided by DMSO vehicle AUC, primary CF-HBE cells, ΔF508 homozygous donor, 48 hours incubation. The method, then:
Example 387. TECC24 AUC Fold Over DMSO @10 μM
The effects of a test agent on CFTR-mediated transepithelial chloride transport is measured using TECC24 recording analysis. Test agents are solubilized in DMSO. Solubilized test agents are mixed with incubation medium containing DMEM/F12, Ultroser G (2%; Crescent Chemical, catalog #67042), Hyclone Fetal Clone II (2%; GE Healthcare, catalog #SH30066.02), bovine brain extract (0.25%; Lonza, catalog #CC-4098), insulin (2.5 μg/mL), IL-13 (10 ng/mL), hydrocortisone (20 nM), transferrin (2.5 μg/mL), triiodothyronine (500 nM), ethanolamine (250 nM), epinephrine (1.5 μM), phosphoethanolamine (250 nM), and retinoic acid (10 nM). Primary human bronchial epithelial cells from a ΔF508 homozygous CF donor (CF-HBE cells; from University of North Carolina Cystic Fibrosis Tissue Procurement Center), grown on Transwell HTS 24-well cell culture inserts (Costar, catalog #3378), are exposed to test agents or controls dissolved in incubation medium. The CF-HBE cells are cultured at 36.5° C. for 48 hours before TECC24 recordings are performed in the presence or absence of test agent, a positive control or vehicle (DMSO).
Following incubation, the transwell cell culture inserts containing the test agent or control-treated CF-HBE cells are loaded onto a TECC24 apparatus (TECC v7 or MTECC v2; EP Design) to record the transepithelial voltage (VT) and resistance (TEER) using 4 AgCl electrodes per well configured in current-clamp mode. The apical and basolateral bath solutions both contain (in mM) 140 NaCl, 5 KCl, 2 CaCl2, 1 MgCl2, 10 Hepes, and 10 glucose (adjusted to pH 7.4 with NaOH). To inhibit basal Na+ absorption, the ENaC inhibitor benzamil (10 μM) is added to the bath. Then, the adenylate cyclase activator, forskolin (10 μM), is added to the bath to activate CFTR. The forskolin-stimulated Cl— transport is halted by addition of CFTR inhibitor-172 (20 μM) to the bath at the end of the experiment to confirm specificity. VT and TEER recordings are digitally acquired at routine intervals using TECC or MTECC software (EP Design). VT and TEER are transformed into equivalent transepithelial Cl— current (IEQ), and the Area Under the Curve (AUC) of the IEQ time course between forskolin and CFTR inhibitor-172 addition is generated using Excel (Microsoft). Efficacy is expressed as the ratio of the test agent AUC divided by vehicle AUC. EC50s based on AUC are generated using the non-linear regression log(agonist) vs. response function in Prism software (Graphpad) with HillSlope fixed=1.
If a test agent increases the AUC of the forskolin-stimulated IEQ relative to vehicle in CF-HBE cells, and this increase is inhibited by CFTR inhibitor-172, then the test agent is considered a CFTR corrector. TECC assay efficacy is expressed as the ratio of the test agent AUC divided by DMSO vehicle AUC. As set forth in Table 2 below, a TECC value less than 12 is marked “A”; a value between 12-20 is marked “B”; a value between 20 and 80 is marked “C”. […]

T2 sequence (P13569 with tags, fused parts or gaps DEL508-508): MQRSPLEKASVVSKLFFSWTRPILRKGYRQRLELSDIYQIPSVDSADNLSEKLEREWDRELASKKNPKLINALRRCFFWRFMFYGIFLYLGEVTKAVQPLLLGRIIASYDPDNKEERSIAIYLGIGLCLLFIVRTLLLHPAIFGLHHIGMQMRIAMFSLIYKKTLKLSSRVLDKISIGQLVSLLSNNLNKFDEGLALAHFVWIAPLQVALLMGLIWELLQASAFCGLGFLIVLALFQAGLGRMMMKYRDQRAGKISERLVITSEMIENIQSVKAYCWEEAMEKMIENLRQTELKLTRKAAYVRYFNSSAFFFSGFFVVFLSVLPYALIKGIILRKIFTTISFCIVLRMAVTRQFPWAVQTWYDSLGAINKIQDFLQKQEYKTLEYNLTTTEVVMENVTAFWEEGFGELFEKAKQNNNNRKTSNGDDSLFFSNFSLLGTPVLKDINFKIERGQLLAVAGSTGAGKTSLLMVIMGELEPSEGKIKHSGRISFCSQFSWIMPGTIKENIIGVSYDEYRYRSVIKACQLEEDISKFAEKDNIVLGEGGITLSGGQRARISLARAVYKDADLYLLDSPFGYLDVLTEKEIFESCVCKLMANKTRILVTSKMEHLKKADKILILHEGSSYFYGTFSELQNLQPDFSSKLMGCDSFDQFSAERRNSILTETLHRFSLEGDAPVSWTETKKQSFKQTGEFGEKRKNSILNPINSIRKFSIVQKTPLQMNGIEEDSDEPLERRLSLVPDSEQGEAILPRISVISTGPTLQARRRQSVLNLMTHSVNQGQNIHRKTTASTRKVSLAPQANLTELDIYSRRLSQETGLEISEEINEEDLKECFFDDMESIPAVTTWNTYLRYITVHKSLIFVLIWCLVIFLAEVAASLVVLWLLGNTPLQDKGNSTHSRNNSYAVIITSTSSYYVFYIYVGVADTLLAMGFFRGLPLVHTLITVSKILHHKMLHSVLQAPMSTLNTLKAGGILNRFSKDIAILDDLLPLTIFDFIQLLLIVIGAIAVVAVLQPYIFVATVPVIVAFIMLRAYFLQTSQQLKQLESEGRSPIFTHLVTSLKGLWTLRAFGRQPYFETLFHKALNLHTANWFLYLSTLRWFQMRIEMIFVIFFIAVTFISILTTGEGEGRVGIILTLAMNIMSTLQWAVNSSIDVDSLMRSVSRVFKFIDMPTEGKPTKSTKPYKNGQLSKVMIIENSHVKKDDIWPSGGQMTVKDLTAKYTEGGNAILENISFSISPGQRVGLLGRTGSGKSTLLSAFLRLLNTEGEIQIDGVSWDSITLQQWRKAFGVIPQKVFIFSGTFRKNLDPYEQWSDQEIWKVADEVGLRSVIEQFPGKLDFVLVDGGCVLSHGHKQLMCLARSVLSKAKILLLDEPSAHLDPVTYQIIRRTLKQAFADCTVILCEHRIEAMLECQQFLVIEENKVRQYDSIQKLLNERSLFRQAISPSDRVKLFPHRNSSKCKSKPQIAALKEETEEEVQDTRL
T1 sequence (P13569 423-646 limits assumed): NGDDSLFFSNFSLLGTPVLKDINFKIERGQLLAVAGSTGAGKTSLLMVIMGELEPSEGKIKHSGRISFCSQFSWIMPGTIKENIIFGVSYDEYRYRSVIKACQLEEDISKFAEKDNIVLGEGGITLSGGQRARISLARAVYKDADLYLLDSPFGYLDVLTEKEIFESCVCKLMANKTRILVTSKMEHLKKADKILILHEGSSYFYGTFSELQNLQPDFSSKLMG

Consider `C[C@@H](Cc1cccc([C@@]2(C)CCCC(C)(C)CS(=O)(=O)CCc3c(c(F)cc4[nH]ccc34)[S+]([O-])c3ccc(F)c(c3)-c3nc2co3)c1)C(=O)O` (single isomer, unassigned) [Compound 248A], for which the “DSLS 3D (100 μM ΔT)” value at NBD1 is “C (a value greater than 10 °C and less than or equal to 25 °C is marked “C”)”. The “TECC (AUC, 10 μM)” value at CFTR was “C (a value between 20 and 80 is marked “C”)”.

As to `Cn1nc2nc1-c1cc(ccc1F)Oc1c(F)cc3[nH]ccc3c1Cn1cc(cn1)C(C)(C)CS(=O)(=O)CCC2(C)c1cccc(CCC(=O)O)c1` (single isomer, unassigned) [Compound 109A, 3-[3-(24,30-difluoro-3,6,11,11-tetramethyl-9,9-dioxo-26-oxa-9lambda6-thia-3,4,14,15,21,33-hexazahexacyclo[25.3.1.12,5.112,15.017,25.018,22]tritriaconta-1(31),2(33),4,12(32),13,17,19,22,24,27,29-undecaen-6-yl)phenyl]propanoic Acid], the “DSLS 3D (100 μM ΔT)” value at NBD1 is “C (a value greater than 10 °C and less than or equal to 25 °C is marked “C”)”. The “TECC (AUC, 10 μM)” value at CFTR is “C (a value between 20 and 80 is marked “C”)”.

Regarding `C[C@@H](Cc1cccc(C2(C)CCCC(C)(C)CS(=O)(=O)CCc3c(c(F)cc4[nH]ccc34)Oc3ccnc(c3)-c3nc2nn3C)n1)C(=O)O` (single isomer, unassigned) [Compound 266A], the “DSLS 3D (100 μM ΔT)” value at NBD1 is “A (an ΔTagg value less than or equal to 5 °C is marked “A”)”. Further, the “TECC (AUC, 10 μM)” value on CFTR is listed as “A (a TECC value less than 12 is marked “A”)”.

Take `C[C@H](Cc1cccc(C2(C)CCCC(C)(C)CS(=O)(=O)CCc3c(c(F)cc4[nH]ccc34)Oc3ccc(F)c(c3)-c3nc2nn3C)c1)C(=O)O` (single isomer, unassigned) [Compound 6A]: the “DSLS 3D (100 μM ΔT)” value on NBD1 was “C (a value greater than 10 °C and less than or equal to 25 °C is marked “C”)”. Moreover, the “TECC (AUC, 10 μM)” value on CFTR was “B (a value between 12-20 is marked “B”)”.

As for `Cn1nc2nc1-c1cc(ccn1)Sc1c(F)c(F)c3[nH]ccc3c1CCS(=O)(=O)CC(C)(C)CCC[C@]2(C)c1cccc(CC(C)(C)C(=O)O)c1` [Compound 275, 3-[3-[(6R)-21,22-Difluoro-3,6,10,10-tetramethyl-12,12-dioxo-12λ6,24-dithia-3,4,19,28,30-pentazapentacyclo[23.3.1.12,5.015,23.016,20]triaconta-1(29),2(30),4,15,17,20,22,25,27-nonaen-6-yl]phenyl]-2,2-dimethyl-propanoic Acid], at NBD1, the “DSLS 3D (100 μM ΔT)” value is “C (a value greater than 10 °C and less than or equal to 25 °C is marked “C”)”. The “TECC (AUC, 10 μM)” value at CFTR is “C (a value between 20 and 80 is marked “C”)”.

In the case of `C[C@H](Cc1cccc(C2(C)CCCC(C)(C)CS(=O)(=O)CCc3c(c(F)cc4[nH]ccc34)C(=O)c3ccc(F)c(c3)-c3nc2nn3C)c1)C(=O)O` (single isomer, unassigned) [Compound 126B], the “DSLS 3D (100 μM ΔT)” value at NBD1 is “B (a value above 5 °C and less than or equal to 10 °C is marked “B”)”. Further, the “TECC (AUC, 10 μM)” value on CFTR was “B (a value between 12-20 is marked “B”)”.

Turning to `CC(Cc1cccc(C2(C)CCCC(C)(C)CS(=O)(=O)CCc3c(c(F)cc4[nH]ccc34)Oc3cccc(c3)-c3nc2cn3C)c1)C(=O)O` (stereo not drawn) [Compound 117, 3-[3-(22-Fluoro-3,6,10,10-tetramethyl-12,12-dioxo-24-oxa-12λ6-thia-3,19,30-triazapentacyclo[23.3.1.12,5.015,23.016,20]triaconta-1(29),2(30),4,15,17,20,22,25,27-nonaen-6-yl)phenyl]-2-methyl-propanoic Acid], the “DSLS 3D (100 μM ΔT)” value on NBD1 was “C (a value greater than 10 °C and less than or equal to 25 °C is marked “C”)”. The “TECC (AUC, 10 μM)” value at CFTR is “C (a value between 20 and 80 is marked “C”)”.

Take `C[C@@H](Cc1cccc([C@@]2(C)CCCC(C)(C)CS(=O)(=O)CCc3c(c(F)cc4[nH]ccc34)Cc3ccnc(c3)-c3nc2nn3C)c1)C(=O)O` [Compound 233, (2S)-3-[3-[(6R)-22-Fluoro-3,6,10,10-tetramethyl-12,12-dioxo-12λ6-thia-3,4,19,28,30-pentazapentacyclo[23.3.1.12,5.015,23.016,20]triaconta-1(29),2(30),4,15,17,20,22,25,27-nonaen-6-yl]phenyl]-2-methyl-propanoic Acid]: the “DSLS 3D (100 μM ΔT)” value on NBD1 was “C (a value greater than 10 °C and less than or equal to 25 °C is marked “C”)”. Moreover, the “TECC (AUC, 10 μM)” value at CFTR is on record as “B (a value between 12-20 is marked “B”)”.

With `[2H]C([2H])([2H])C1(c2cccc(/C=C/C(=O)O)c2)CCCC(C)(C)CS(=O)(=O)CCc2c(c(F)cc3[nH]ccc23)Oc2ccc(F)c(c2)-c2nc1nn2C` (single isomer, unassigned) [Compound 15B, (E)-3-[3-[22,28-difluoro-3,10,10-trimethyl-12,12-dioxo-6-(trideuteriomethyl)-24-oxa-12lambda6-thia-3,4,19,30-tetrazapentacyclo[23.3.1.12,5.015,23.016,20]triaconta-1(29),2(30),4,15,17,20,22,25,27-nonaen-6-yl]phenyl]prop-2-enoic Acid], the “DSLS 3D (100 μM ΔT)” value on NBD1 was “B (a value above 5 °C and less than or equal to 10 °C is marked “B”)”. The “TECC (AUC, 10 μM)” value on CFTR is “A (a TECC value less than 12 is marked “A”)”.

On to `CCn1nc2nc1-c1cc(ccc1F)Oc1c(F)cc3[nH]ccc3c1CCS(=O)(=O)CC(C)(C)CCCC2(C)c1cccc(CCC(=O)O)c1` (single isomer, unassigned) [Compound 91B, 3-[3-(3-ethyl-22,28-difluoro-6,10,10-trimethyl-12,12-dioxo-24-oxa-12lambda6-thia-3,4,19,30-tetrazapentacyclo[23.3.1.12,5.015,23.016,20]triaconta-1(29),2(30),4,15,17,20,22,25,27-nonaen-6-yl)phenyl]propanoic Acid], for which, at NBD1, the “DSLS 3D (100 μM ΔT)” value is “A (an ΔTagg value less than or equal to 5 °C is marked “A”)”. Also, the “TECC (AUC, 10 μM)” value on CFTR was “A (a TECC value less than 12 is marked “A”)”.

For the compound `CC(Cc1cccc(C2(C#N)CCCC(C)(C)CS(=O)(=O)CCc3c(c(F)cc4[nH]ccc34)Oc3ccc(F)c(c3)-c3nc2nn3C)c1)C(=O)O` (single isomer, unassigned) [Compound 20B, 3-[3-[6-cyano-22,28-difluoro-3,10,10-trimethyl-12,12-dioxo-24-oxa-12lambda6-thia-3,4,19,30-tetrazapentacyclo[23.3.1.12,5.015,23.016,20]triaconta-1(29),2(30),4,15,17,20,22,25,27-nonaen-6-yl]phenyl]-2-methyl-propanoic acid], on NBD1, the “DSLS 3D (100 μM ΔT)” value is “A (an ΔTagg value less than or equal to 5 °C is marked “A”)”. Further, the “TECC (AUC, 10 μM)” value on CFTR is given as “A (a TECC value less than 12 is marked “A”)”.

Take `Cn1nc2nc1-c1cc(ccc1F)Oc1c(F)cc3[nH]ccc3c1CCS(=O)(=O)CC(C)(C)OCCC2(C)c1cccc(CC(=O)O)c1` (single isomer, unassigned) [Compound 5B, 2-[3-(22,28-Difluoro-3,6,10,10-tetramethyl-12,12-dioxo-9,24-dioxa-12λ^6-thia-3,4,19,30-tetrazapentacyclo[23.3.1.12,5.015,23.016,20]triaconta-1(29),2(30),4,15,17,20,22,25,27-nonaen-6-yl)phenyl]acetic Acid]: the “DSLS 3D (100 μM ΔT)” value at NBD1 was “B (a value above 5 °C and less than or equal to 10 °C is marked “B”)”. Further, the “TECC (AUC, 10 μM)” value at CFTR is “B (a value between 12-20 is marked “B”)”.
